Results as given in article PMC9025555, “Chiral Recognition R- and RS- of New Antifungal: Complexation/Solubilization/Dissolution Thermodynamics and Permeability Assay” (Pharmaceutics, 2022).
≈ marks a conversion by molar mass, not a printed value.

Assays:
[1] = Phase solubility study (shake-flask) in buffers with 2-HP-β-CD; conditions: pH 7.4; for Experimental solubility (S2): S2 10^4/M
Description: An excess amount of the substance was placed in the glass screw-capped vials with the solvent. The vials were stirred in an air thermostat for a certain period of time (a period of 3 days was estimated to be enough for reaching the equilibrium between the solid and the solvent). Then, the saturated solutions were kept in a thermostat in mild conditions no less than 12 h and thereafter centrifuged at a fixed temperature (Biofuge pico, Thermo Electron LED GmbH, Langenselbold, Germany) for 10 min at 12,000 rpm. […] The experimental results were reported as an average of at least three replicated experiments. Temperature uncertainty was ±0.1 K. The sensitivity of UV spectroscopic determinations was characterized by the values of the limit of detection (LOD)/limit of quantification (LOQ).

[2] = Thermodynamics of complexation, solubilization and inherent dissolution (mole fraction scale); assay type: physicochemical; conditions: for Gibbs free energy of transfer from pure buffer pH 2.0 to CD solution: Eq. (10)
Description: The Gibbs energy change of the inherent (in pure aqueous buffer without CD) dissolution ( ΔGinh/sol0,X ) in mole fraction scale was derived from the compound mole fraction solubility ( X20 ) in the following way:(8) ΔGinh/sol0,X=−RTlnX20
The standard solution enthalpies ΔHinh/sol0,X and entropies ΔSinh/sol0,X were calculated using a linear dependence between lnX20 and 1/T and van’t Hoff equation:(9) lnX20=−ΔHinh/sol0,X/RT+ΔSinh/sol0,X/R
The free energy of transferring a compound from the aqueous buffer solution to the CD solution of a certain CD concentration ( CCD ) (corresponds to solubilization process) was calculated by Equation (10):(10) ΔGslbz0,X(CCD)=−RTlnX2/X20, where X20 is the inherent solubility of the drug in mole fraction in the absence of CD at temperature T, and X2 is the total solubility in the presence of CD at the same temperature, R is the universal gas constant. The solubilization enthalpy ( ΔHslbz0,X(CCD) ) and entropy ( TΔSslbz0,X(CCD) ) were derived as follows:(11) ΔHslbz0,X(CCD)=ΔHsol0,X(CCD)−ΔHsol0,X (12) TΔSslbz0,X(CCD)=TΔSsol0,X(CCD)−TΔSsol0,X where ΔHsol0,X and ΔSsol0,X are the enthalpy and entropy of solubility process of the investigated compounds in the absence of CD, whereas ΔHsol0,X(CCD) and ΔSsol0,X(CCD) are the enthalpy and entropy of solubility process in the presence of CD with concentration CCD .
In order to determine the thermodynamic parameters of the complex formation for the compounds with CD, the stability constants ( KCX , mole fraction scale) at different temperatures were obtained using the phase diagrams and mole fractions ( X20 ) (analogously to Equation (3) by the following equation:(13) KCX=slope/X20⋅(1−slope),
Respectively, the Gibbs energy of the complexation in mole fraction scale ( ΔGC0,X ) was derived from the stability constants ( KCX ) in the following way:(14) ΔGC0,X=−RTlnKCX
The thermodynamic parameters of the complexation, i.e., the standard enthalpy change ( ΔHC0,X ) and the standard entropy change ( ΔSC0,X ) were calculated with the help of the integral form of the van’t Hoff’s equation:(15) lnKCX=−ΔHC0,X/RT+ΔSC0,X/R where a plot of lnKCX versus 1/T produces Slope = −ΔHC0,X/R and intercept equal to ΔSC0,X/R .
In order to understand the contribution of the hydrophobic effect (desolvation) to the complexation process on a relative scale, the approach disclosing the correlation of the free energy of complex formation with the free energy of the substance solubility in the same buffer solution proposed by Al Omari et al. was applied. To this end, the Gibbs energy of complex formation ( ΔGCT,X ) and inherent dissolution ( ΔGinh/solT,X ) in mole fraction scale were used. A linear correlation between ΔGCT,X and ΔGsolT,X results in Equation (16):(16) ΔGCT,X=a⋅ΔGinh/solT,X+b where the slope (a) is the magnitude of the hydrophobic effect, and the intercept (b) is the structural factor. […]

[3] = buffer pH 2.0, 298.15 K, mole fraction scale
[4] = buffer pH 2.0 without CD, 298.15 K, mole fraction scale

O=C1S/C(=C\c2ccc(Cl)cc2)C(=O)N1CC(O)CN1CCN(CC(O)(Cn2cncn2)c2ccc(F)cc2F)CC1 (centres unmarked) [RS-186, (Z)-5-(4-chlorobenzylidene)-3-(3-(4-(2-(2,4-difluorophenyl)-2-hydroxy-3-(1H-1,2,4-triazol-1-yl)propyl)piperazin-1-yl)-2-hydroxypropyl)thiazolidine-2,4-dione]
Experimental solubility (S2) ([1]; 310.15 K, 2-HP-β-CD 0.03 M): 5.01 ± 0.05 10^4/M | Experimental solubility (S2) ([1]; 310.15 K, 2-HP-β-CD 0.04 M): 6.97 ± 0.08 10^4/M | Experimental solubility (S2) ([1]; 310.15 K, 2-HP-β-CD 0.05 M): 8.58 ± 0.08 10^4/M | Experimental solubility (S2) ([1]; 313.15 K, 2-HP-β-CD 0 M): 0.37 ± 0.01 10^4/M | Experimental solubility (S2) ([1]; 313.15 K, 2-HP-β-CD 0.01 M): 1.37 ± 0.06 10^4/M | Experimental solubility (S2) ([1]; 313.15 K, 2-HP-β-CD 0.03 M): 2.50 ± 0.03 10^4/M | Experimental solubility (S2) ([1]; 313.15 K, 2-HP-β-CD 0.04 M): 3.20 ± 0.05 10^4/M | Experimental solubility (S2) ([1]; 313.15 K, 2-HP-β-CD 0.05 M): 3.65 ± 0.05 10^4/M | order of the solubility ([1]; compared with reported FCZ and L-173): (FCZ) > (R-98 ≥ RS-186) >> (L-173) | solubility in pure buffer solution ([1]; pure buffer): 27 µM (≈ 16.7 µg/mL) | Gibbs free energy of transfer from pure buffer pH 2.0 to CD solution ([2]; CCD 0.01, 298.15 K): -4.73 | Gibbs free energy of transfer from pure buffer pH 2.0 to CD solution ([2]; CCD 0.01, 303.15 K): -4.83 | Gibbs free energy of transfer from pure buffer pH 2.0 to CD solution ([2]; CCD 0.01, 310.15 K): -5.12 | Gibbs free energy of transfer from pure buffer pH 2.0 to CD solution ([2]; CCD 0.01, 313.15 K): -5.43 | Gibbs free energy of transfer from pure buffer pH 2.0 to CD solution ([2]; CCD 0.03, 298.15 K): -6.90 | Gibbs free energy of transfer from pure buffer pH 2.0 to CD solution ([2]; CCD 0.03, 303.15 K): -7.10 | Gibbs free energy of transfer from pure buffer pH 2.0 to CD solution ([2]; CCD 0.03, 310.15 K): -7.36 | Gibbs free energy of transfer from pure buffer pH 2.0 to CD solution ([2]; CCD 0.03, 313.15 K): -7.66 | Gibbs free energy of transfer from pure buffer pH 2.0 to CD solution ([2]; CCD 0.04, 298.15 K): -7.64 | Gibbs free energy of transfer from pure buffer pH 2.0 to CD solution ([2]; CCD 0.04, 303.15 K): -7.84 | Gibbs free energy of transfer from pure buffer pH 2.0 to CD solution ([2]; CCD 0.04, 310.15 K): -8.15 | Gibbs free energy of transfer from pure buffer pH 2.0 to CD solution ([2]; CCD 0.04, 313.15 K): -8.52 | Gibbs free energy of transfer from pure buffer pH 2.0 to CD solution ([2]; CCD 0.05, 298.15 K): -8.22 | Gibbs free energy of transfer from pure buffer pH 2.0 to CD solution ([2]; CCD 0.05, 303.15 K): -8.43 | Gibbs free energy of transfer from pure buffer pH 2.0 to CD solution ([2]; CCD 0.05, 310.15 K): -8.75 | Gibbs free energy of transfer from pure buffer pH 2.0 to CD solution ([2]; CCD 0.05, 313.15 K): -9.06 | slope (a) of ΔGC versus ΔGsol correlation, magnitude of the hydrophobic effect ([2]; Equation (16), pH 2.0, mole fraction scale): −0.611 | solubilization: change of the standard Gibbs energy (ΔGslbz0,X) ([2]; buffer pH 2.0, 298.15 K, calculated at maximal 0.05 M CD concentration): -1.96 kcal/mol | change of the standard Gibbs energy of inclusion complex formation (ΔGC0,X) [2, 3]: -3.7 kcal/mol | enthalpy of inclusion complex formation (ΔHC0,X) [2, 3]: -2.22 ± 0.311 kcal/mol | entropy of inclusion complex formation (TΔSC0,X) [2, 3]: 1.48 ± 0.22 kcal/mol | solubilization entropy (TΔSslbz0,X) [2, 3]: 3.59 ± 0.789 kcal/mol | inherent solubility Gibbs energy (ΔGinh/sol0,X) [2, 4]: 7.17 kcal/mol | inherent solubility enthalpy (ΔHinh/sol0,X) [2, 4]: 4.54 ± 0.526 kcal/mol | inherent solubility entropy (TΔSinh/sol0,X) [2, 4]: -2.63 ± 0.359 kcal/mol | ratio |ΔHC0,X| > |TΔSC0,X| ([2]; complexation, pH 2.0, 298.15 K): about 1.5 fold | Complexation constant (KCX) ([2]; mole fraction scale, buffer pH 2.0, 298.15 K): 525.2 ± 52.9 | contribution of the hydrophobic interactions to the driving force for complex stability ([2]; pH 2.0): ~61%
